Measured values reported in patent US10336762B2 (priority 2017, dated 2019).
Read-outs that look alike come from different tables or passages of the source.

Assays:
TNFα = assay: cells; type: cell-based, human; details: LPS-stimulated human monocytes, read-out: EC50 TNF
IRAK4 enzyme = IRAK4 enzyme (Homo sapiens (Human), UniProt Q9NWZ3); assay: biochemical; type: biochemical; details: IRAK4 enzyme, 500 μM ATP
[1] = Homo sapiens, Monocyte, TNFα by TR-FRET
[2] = Homo sapiens, Monocyte, TNFα content

Chain of IRAK4 enzyme (Q9NWZ3 whole entry): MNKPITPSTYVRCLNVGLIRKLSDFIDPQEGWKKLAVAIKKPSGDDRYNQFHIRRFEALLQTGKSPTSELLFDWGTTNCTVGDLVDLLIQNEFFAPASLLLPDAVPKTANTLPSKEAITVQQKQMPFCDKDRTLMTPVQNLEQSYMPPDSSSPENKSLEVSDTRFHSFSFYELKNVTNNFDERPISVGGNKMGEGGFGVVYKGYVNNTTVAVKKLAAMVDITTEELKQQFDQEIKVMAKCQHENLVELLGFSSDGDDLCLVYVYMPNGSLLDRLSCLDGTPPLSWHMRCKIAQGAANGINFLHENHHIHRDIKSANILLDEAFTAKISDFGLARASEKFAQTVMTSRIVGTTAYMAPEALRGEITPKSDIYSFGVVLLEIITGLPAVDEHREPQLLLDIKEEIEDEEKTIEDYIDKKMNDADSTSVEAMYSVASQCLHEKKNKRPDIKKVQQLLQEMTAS

| SMILES | EC50 (TNFα; [1]) [nM] | IC50 (IRAK4 enzyme; TR-FRET) [nM] | EC50 (TNFα; [2]) [nM] | IC50 (IRAK4 enzyme; TR-FRET (HTRF)) [nM] | EC50 (TNFα; TNFα by TR-FRET) [nM] |
| --- | --- | --- | --- | --- | --- |
| CN(C(=O)CNC(=O)c1cnc(-c2ccc3cc(C#N)cnn23)cc1NC12CCC(O)(CC1)CC2)C(C)(C)C [Example 814, N-(2-(tert-butyl(methyl)amino)-2-oxoethyl)-6-(3-cyanopyrrolo[1,2-b]pyridazin-7-yl)-4-((4-hydroxybicyclo[2.2.2]octan-1-yl)amino) nicotinamide] | 40 | < 1 |  |  |  |
| CC(C)(O)[C@H](F)CNC(=O)c1cnc(-c2ccc3cc(C#N)cnn23)cc1Nc1ccnc(F)c1 [Example 591, (R)-6-(3-cyanopyrrolo[1,2-b]pyridazin-7-yl)-N-(2-fluoro-3-hydroxy-3-methylbutyl)-4-((2-fluoro-pyridin-4-yl)amino) nicotinamide] |  |  | 180 | 2 |  |
| CC1(C)OCCC1Nc1cc(-c2ccc3cc(C#N)cnn23)ncc1C(=O)NC[C@@H](F)C(C)(C)O (stereo partly drawn) [Example 130, 6-(3-cyanopyrrolo[1,2-b]pyridazin-7-yl)-4-((2,2-dimethyltetrahydrofuran-3-yl)amino)-N-((R)-2-fluoro-3-hydroxy-3-methylbutyl)nicotinamide] |  | 3 | 221 |  |  |
| CC(C)Nc1cc(-c2ccc3cc(C#N)cnn23)ncc1C(=O)NCCS(N)(=O)=O [Example 20, 6-(3-cyanopyrrolo[1,2-b]pyridazin-7-yl)-4-(isopropyl-amino)-N-(2-sulfamoylethyl)nicotinamide] |  | 2 | 128 |  |  |
| CC(C)(O)[C@H](F)CNC(=O)c1cnc(-c2ccc3cc(C#N)cnn23)cc1Nc1ccc2c(c1)CN(C1COC1)C2 [Example 864, (R)-6-(3-cyanopyrrolo[1,2-b]pyridazin-7-yl)-N-(2-fluoro-3-hydroxy-3-methylbutyl)-4-((2-(oxetan-3-yl)isoindolin-5-yl)amino) nicotinamide] | 69 | < 1 |  |  |  |
| Cc1nnc(N[C@H]2CC[C@H](Nc3cc(-c4ccc5cc(C#N)cnn45)ncc3C(=O)NC[C@@H](F)C(C)(C)O)CC2)o1 [Example 269, 6-(3-cyanopyrrolo[1,2-b]pyridazin-7-yl)-N-((R)-2-fluoro-3-hydroxy-3-methylbutyl)-4-(((1R,4R)-4-((5-methyl-1,3,4-oxadiazol-2-yl)amino)cyclohexyl)amino)nicotinamide] |  | 1 | 59 |  |  |
| CC(C)(O)[C@H](F)CNC(=O)c1cnc(-c2ccc3cc(C#N)cnn23)cc1Nc1nc(-c2ccc(Oc3ccccc3)cc2)cs1 [Example 359, (R)-6-(3-cyanopyrrolo[1,2-b]pyridazin-7-yl)-N-(2-fluoro-3-hydroxy-3-methylbutyl)-4-((4-(4-phenoxyphenyl)thiazol-2-yl)amino)nicotinamide] |  | 614 | > 10000 |  |  |
| CC(=O)Nc1nc(NC(=O)c2cnc(-c3ccc4cc(C#N)cnn34)cc2NC(C)C)cs1 [Example 493, N-(2-acetamidothiazol-4-yl)-6-(3-cyanopyrrolo[1,2-b]pyridazin-7-yl)-4-(isopropylamino)nicotinamide] |  |  | > 10000 | 12 |  |
| COC(=O)N[C@H]1C[C@H](Nc2cc(-c3ccc4cc(C#N)cnn34)ncc2C(=O)NC[C@@H](F)C(C)(C)O)C1 [Example 455, methyl ((1R,3r)-3-((2-(3-cyanopyrrolo[1,2-b]pyridazin-7-yl)-5-(((R)-2-fluoro-3-hydroxy-3-methylbutyl)carbamoyl)pyridin-4-yl)amino)cyclobutyl)carbamate] |  |  | 118 | 1 |  |
| N#CCNC(=O)c1cnc(-c2ccc3cc(C#N)cnn23)cc1N[C@H]1CC[C@H](N2CCOC2=O)CC1 [Example 391, N-(cyanomethyl)-6-(3-cyanopyrrolo[1,2-b]pyridazin-7-yl)-4-(((1r,4r)-4-(2-oxooxazolidin-3-yl)cyclohexyl)amino) nicotinamide] |  | < 1 | 33 |  |  |
| CC(C)(O)[C@H](F)CNC(=O)c1cnc(-c2ccc3cc(C#N)cnn23)cc1NC1C2CNCC1C2 (single isomer, unassigned) [Example 25] |  | 2 | 116 |  |  |
| Cc1ccc(-c2cc(Nc3cc(-c4ccc5cc(C#N)cnn45)ncc3C(=O)NC[C@@H](F)C(C)(C)O)n(-c3ccccc3)n2)cc1 [Example 364, (R)-6-(3-cyanopyrrolo[1,2-b]pyridazin-7-yl)-N-(2-fluoro-3-hydroxy-3-methylbutyl)-4-((1-phenyl-3-(p-tolyl)-1H-pyrazol-5-yl)amino)nicotinamide] |  | 1000 | > 10000 |  |  |
| CC(C)(N)CCNC(=O)c1cnc(-c2ccc3cc(C#N)cnn23)cc1NC12CCC(O)(CC1)CC2 [Example 345, N-(3-amino-3-methylbutyl)-6-(3-cyanopyrrolo[1,2-b]pyridazin-7-yl)-4-((4-hydroxybicyclo[2.2.2]octan-1-yl)amino)nicotinamide] |  | 1 | 116 |  |  |
| CC(=O)N1CC(Nc2cc(-c3ccc4cc(C#N)cnn34)ncc2C(=O)NC[C@@H](F)C(C)(C)O)C1 [Example 449, (R)-4-((1-acetylazetidin-3-yl)amino)-6-(3-cyano-pyrrolo[1,2-b]pyridazin-7-yl)-N-(2-fluoro-3-hydroxy-3-methylbutyl)nicotinamide] |  |  | 361 | 3 |  |
| CC(C)(O)[C@H](F)CNC(=O)c1cnc(-c2ccc3cc(C#N)cnn23)cc1Nc1ccc2c(c1)CNC2=O [Example 434, (R)-6-(3-cyanopyrrolo[1,2-b]pyridazin-7-yl)-N-(2-fluoro-3-hydroxy-3-methylbutyl)-4-((1-oxoisoindolin-5-yl)amino)nicotinamide] |  |  | 107 | < 1 |  |
| CC(C)(O)[C@H](F)CNC(=O)c1cnc(-c2ccc3cc(C#N)cnn23)cc1N[C@H]1C[C@H](CN2CCOCC2)C1 [Example 701, 6-(3-cyanopyrrolo[1,2-b]pyridazin-7-yl)-N-((R)-2-fluoro-3-hydroxy-3-methylbutyl)-4-(((1r,3R)-3-(morpholino-methyl)cyclobutyl)amino)nicotinamide] |  |  | 191 | 4 |  |
| CC(C)(O)[C@H](F)CNC(=O)c1cnc(-c2ccc3cc(C#N)cnn23)cc1Nc1ccn2nccc2c1 [Example 975, (R)-6-(3-cyanopyrrolo[1,2-b]pyridazin-7-yl)-N-(2-fluoro-3-hydroxy-3-methyl-butyl)-4-(pyrazolo[1,5-a]pyridin-5-ylamino) nicotinamide] | 67 | < 1 |  |  |  |
| C[C@H](NC(=O)c1cnc(-c2ccc3cc(C#N)cnn23)cc1NC12CCC(O)(CC1)CC2)C(=O)N1CCOCC1 [Example 943, (S)-6-(3-cyano-pyrrolo[1,2-b]pyridazin-7-yl)-4-((4-hydroxy-bicyclo[2.2.2]octan-1-yl)amino)-N-(1-morpholino-1-oxopropan-2-yl) nicotinamide] | 836 | 35 |  |  |  |
| CC(C)Nc1cc(-c2ccc3cc(C#N)cnn23)ncc1C(=O)NCC1CCS(=O)(=O)C1 (stereo not drawn) [Example 73, 6-(3-cyanopyrrolo[1,2-b]pyridazin-7-yl)-N-((1,1-dioxidotetrahydrothiophen-3-yl)methyl)-4-(isopropylamino) nicotinamide] |  | 3 | 119 |  |  |
| CC(C)(O)[C@H](F)CNC(=O)c1cnc(-c2ccc3cc(C#N)cnn23)cc1Nc1cccnn1 [Example 588, (R)-6-(3-cyanopyrrolo[1,2-b]pyridazin-7-yl)-N-(2-fluoro-3-hydroxy-3-methylbutyl)-4-(pyridazin-3-ylamino)nicotinamide] |  |  | 412 | 3 |  |
| CC(C)(C)Nc1cc(-c2ccc3cc(C#N)cnn23)ncc1C(=O)NC[C@@H](F)C(C)(C)O [Example 33, (R)-4-(tert-butylamino)-6-(3-cyanopyrrolo[1,2-b]pyridazin-7-yl)-N-(2-fluoro-3-hydroxy-3-methylbutyl)nicotinamide] |  | < 1 | 29 |  |  |
| CNC(=O)c1cnc(-c2ccc3cc(C#N)cnn23)cc1NC12CC(NC(=O)C3CC3)(C1)C2 [Example 480, 6-(3-cyanopyrrolo[1,2-b]pyridazin-7-yl)-4-((3-(cyclopropanecarboxamido)bicyclo[1.1.1]pentan-1-yl)amino)-N-methylnicotin-amide] |  |  | 92 | 2 |  |
| CN1CCN(C(=O)C23CCC(Nc4cc(-c5ccc6cc(C#N)cnn56)ncc4C(=O)NC[C@@H](F)C(C)(C)O)(CC2)CC3)CC1 [Example 802, (R)-6-(3-cyanopyrrolo[1,2-b]pyridazin-7-yl)-N-(2-fluoro-3-hydroxy-3-methylbutyl)-4-((4-(4-methylpiperazine-1-carbonyl)bicyclo[2.2.2]octan-1-yl)amino) nicotinamide] | 157 | 2 |  |  |  |
| CNC(=O)c1cnc(-c2ccc3cc(C#N)cnn23)cc1NC(C)C [Example 38, 6-(3-cyanopyrrolo[1,2-b]pyridazin-7-yl)-4-(isopropylamino)-N-methylnicotinamide] |  | 2 | 91 |  |  |
| COC(=O)N1CCC12CC(Nc1cc(-c3ccc4cc(C#N)cnn34)ncc1C(=O)NC[C@@H](F)C(C)(C)O)C2 (stereo partly drawn) [Example 909, (4S,6r)-methyl 6-((2-(3-cyanopyrrolo[1,2-b]pyridazin-7-yl)-5-(((R)-2-fluoro-3-hydroxy-3-methylbutyl)carbamoyl)pyridin-4-yl)amino)-1-azaspiro[3.3]heptane-1-carboxylate] |  | 15 |  |  | 372 |
| N#Cc1cnn2c(-c3cc(NC45CCC(O)(CC4)CC5)c(C(=O)NCC(=O)N4CCCC4)cn3)ccc2c1 [Example 790, 6-(3-cyanopyrrolo[1,2-b]pyridazin-7-yl)-4-((4-hydroxybicyclo[2.2.2]octan-1-yl)amino)-N-(2-oxo-2-(pyrrolidin-1-yl)ethyl)nicotinamide] |  |  | 21 | < 1 |  |
| CC(C)Nc1cc(-c2ccc3cc(C#N)cnn23)ncc1C(=O)NC1CCS(=O)(=O)C1 (stereo not drawn) [Example 123, 6-(3-cyanopyrrolo[1,2-b]pyridazin-7-yl)-N-(1,1-dioxidotetrahydrothiophen-3-yl)-4-(isopropylamino) nicotinamide] |  | 6 | 421 |  |  |
